In patent US20240324679A1, “METHODS AND DEVICES FOR CONTROLLING THE TEMPERATURE OF A DRUG FOIL SUBSTRATE TO GENERATE AN AEROSOL” (ALEXZA PHARMACEUTICALS, INC., priority 2021, published 2024):
Where a name gives a salt, the structure may show the parent alone.

Tests used:
[1] = Vaporization of apomorphine HCl film from drug foil substrate, Heat Source 1 (testing electric heating, Device 1); assay type: physicochemical; conditions: 0.44 mg/cm^2 coating, airflow ~30 L/min
Description: Device 1 has an air inlet and air outlet and a 1 F capacitor (Phoenix Gold Titanium series) to be discharged to resistively heat the substrate (<0.2 sec) and facilitate rapid aerosol formation with a cross-foil airflow of ˜ 30 L/min. Calibration for temperature versus applied voltage was determined with a thermocouple spot-welded to the foil surface.
A 12.7×63.5, 0.127 mm 304-stainless steel drug foil substrate attached to Device 1 with connexions to receive electrical power from an electrical source. Devices were actuated with a constant airflow of ˜ 30 L/min. An example is depicted in FIG. 1D.
(§1) […] was coated on 2.27 cm^2 (0.44 mg/cm^2) on the drug foil substrate of Heat Source 1 or 2 and heated to the temperatures specified in the table below.

[2] = Vaporization of apomorphine HCl film from drug foil substrate, Heat Source 2 (chemical heat package, Device 2); assay type: physicochemical; conditions: 0.44 mg/cm^2 coating, airflow ~30 L/min
Text: A 100 mm long device such as that in FIG. 1B, the same shape as that of the Adasuve® device, moulded from PermaStat® resin (antistatic material).
A 47.2×47.2×0.38 mm 304-stainless steel drug foil substrate is attached to a chemical heat package connected to Device 2.
In chemical heat package devices, an exothermic thermite reaction from the reactants inside of the heat package rapidly propagated (˜ 0.1 s) and generated heat nearly instantaneously, which vaporized the drug film. The reactants are calibrated to heat the drug foil substrate to a given temperature. Upper and lower housings were welded prior to vaporization. Devices were actuated with a constant airflow of ˜ 30 L/min.
as §1

[3] = Heat Source 1, substrate temp. 260 °C
[4] = Heat Source 1, substrate temp. 290 °C
[5] = Heat Source 1, substrate temp. 310 °C
[6] = Heat Source 1, substrate temp. 320 °C
[7] = Heat Source 2, substrate temp. 310 °C
[8] = Heat Source 2, substrate temp. 330 °C

% Vaporization [1, 3]: 40.57 ± 9.34%
Aerosol Purity (%) [1, 3]: 98.35 ± 0.64%
% Vaporization [1, 4]: 58.03 ± 12.15%
Aerosol Purity (%) [1, 4]: 96.45 ± 0.93%
% Vaporization [1, 5]: 59.69 ± 0.34%
Aerosol Purity (%) [1, 5]: 94.92 ± 1.12%
% Vaporization [1, 6]: 66.14 ± 0.95%
Aerosol Purity (%) [1, 6]: 90.89 ± 0.78%
% Vaporization [2, 7]: 48.32 ± 16.77%
Aerosol Purity (%) [2, 7]: 91.71 ± 1.62%
% Vaporization [2, 8]: 61.58 ± 2.07%
Aerosol Purity (%) [2, 8]: 87.51 ± 0.18%
% Vaporization ([2]; Heat Source 2, substrate temp. 400 °C): 49.07 ± 1.12%
SMILES: CN1CCc2cccc3c2[C@H]1Cc1ccc(O)c(O)c1-3 [apomorphine HCl]
